Data: patent publication EP0502205A1, “CHALCONE DERIVATIVE AND ULTRAVIOLET SCREENING COSMETIC” (NIPPON HYPOX LABORATORIES INCORPORATED, priority 1990, dated 1992)

Tests used:
[1] = Ultraviolet light absorption maximum and absorbance in ethanol solution; type: physicochemical
[2] = test system: sunburn; test: Ultraviolet screening test (ointment on skin exposed to direct sunlight); type: in vivo, normally healthy persons; conditions: 10 mg ointment containing 1 wt.%, femoral region, 10 persons, direct sunlight 2 hours and 30 minutes
Procedure: 10 Milligrams of the ointment containing 1 wt.% of the known chalcone derivative in Example 14, obtained in Example 15, 10 mg of an ointment containing 1 wt.% of p-aminobenzoic acid as a control, obtained in the same manner as in Example 15 except for the use of p-aminobenzoic acid in place of the above known chalcone derivative (to be abbreviated as AO in Table 3 which will follow), and 10 mg of the same hydrophilic ointment as that used in Example 15 (to be abbreviated as HO in Table 2 which will follow) were respectively applied to the femoral region of each of normally healthy persons (10 persons) such that these became circular forms having nearly the same size. Then, these applied portions were exposed to direct sunlight outdoors in fine weather for 2 hours and 30 minutes.
After the exposure, each applied portion was visually observed. The portions where clear sunburn was recognized were taken as +, the portions where slight sunburn was recognized were taken as ±, and the portions where almost no change was recognized were taken as -. The test substances were so evaluated on their ultraviolet screening effects.
The ointment containing 1 wt.% of the novel chalcone derivative of Example 1, obtained in Example 15, the ointment containing 1 wt.% of the novel chalcone derivative of Example 1, the ointment containing 1 wt.% of the novel chalcone derivative of Example 2, the ointment containing 1 wt.% of the novel chalcone derivative of Example 4, the ointment containing 1 wt.% of the novel chalcone derivative of Example 6 and the ointment containing 1 wt.% of the known chalcone derivative of Example 9 were respectively similarly tested on their ultraviolet screening effects. However, the exposure time outdoors in fine weather was set for 1 hour. […]

[3] = test system: notal skins of Hartley guinea pigs; test: Safety test (ointment on skin under adhesive plaster, histological observation); type: in vivo; conditions: 10 mg ointment containing 5 wt.%, covered with adhesive plaster for 24 hours or 72 hours
Procedure: 10 milligrams of the ointment containing 5 wt.% of the known chalcone derivative of Example 14, obtained in Example 16, was applied to the notal skins of Hartley guinea pigs, and the applied portions were covered with an adhesive plaster for 24 hours or 72 hours.

[4] = test system: inflammation induced by an egg-white albumin-adjuvant system; test: Anti-inflammatory activity test (swelling of subplantar region of right hind paw); type: in vivo, SD rats; conditions: oral, 10 mg/weight-kg, 0.5 hour before inflammation inducer; measured 0.5, 1, 2, 3 and 4 hours after; Fig. 1
Procedure: As a test group, a comparison group and a control group, 5 male SD rats weighing 180 to 220 g were used per group. Each rat was measured for a size (volume) of the subplantar region of the right hind paw.
This aluminum hydroxide was used as an adjuvant. Per rat, a solution obtained by suspending 4 mg of the adjuvant and 0.2 mg of egg-white albumin in 0.1 ml of pertussis vaccine was prepared as an inflammation inducer.
0.5 Hour after the administration, the inflammation inducer was intracutaneously administered into the subplantar region of the right hind paw of each rat to induce swelling.
Then, 0.5, 1, 2, 3 and 4 hours after the administration of the inflammation inducer, each rat was measured for a size (volume) of the subplantar region of the right hind paw by volumetry. […] [formula] Ps: Measurement value of volume of subplantar region at a measurement time (average of the group). Po: Measurement value of volume of subplantar region before administration of inflammation inducer (average of the group).
Each rat of the control group was orally administered with a 10 % Nikkol-containing physiological saline solution in place of the 10 % Nikkol-containing physiological saline solution containing 2',4'-dihydroxychalcone. Thereafter, the same procedures as those for the test group were repeated to determine the swelling as a group.

[5] = test system: rat abdominal cavity exudate mast cell; test: Anti-allergic activity test (inhibition of free histamine from mast cell, concanavalin A as freeing agent); type: cell-based, SD rat; conditions: 10 min, concentration of 0.03 mM, n = 5, read-out: free histamine inhibition ratio
Procedure: At first, an abdominal cavity exudate mast cell of an SD rat was obtained by a conventional method. Then, the above-obtained abdominal cavity mast cell was floated on a Locke solution, and a test substance in a predetermined concentration and phosphatidylcerine (final concentration 3 µg/ml) were added. The mixture was warmed up to 37° C, and after concanavalin A as a freeing agent was added, the mixture was maintained at 37° C for 10 minutes. Thereafter, the reaction solution was centrifugally separated to a sediment portion and a supernatant portion, and the histamine amount of each of these portions was quantitatively determined by an orthophthalaldehyde method. In addition, as a test substance, a dimethylformamide solution (final concentration 0.03 mM) of 3 mM 2',4'-dihydroxychalcone and a DMF solution (final concentration 0.03 mM) of an anti-inflammatory drug (Azelastine) were used. The free histamine ratio was calculated on the basis of the following equation. In control, the solvent alone was added. [formula] Ps: Histamine amount in sediment portion Pr: Histamine amount in supernatant portion. The free histamine inhibition ratio of the test substance was calculated on the basis of the following equation. [formula] S: Free histamine ratio when test substance is added. C: Free histamine ratio when no test substance is added (control). […]

[6] = test system: lipid peroxidation reaction of liver microsome; test: Cell protection activity test (inhibition of lipid peroxidation, thiobarbituric acid method); type: biochemical, rat; conditions: 37° C 20 minutes, n = 3 - 5
Procedure: Cell impairment caused by a radical reaction of an organic compound is known as one of optical affections on the skin.
First, rat liver microsome was obtained by a conventional method, and then, suspended in 1.15 % KCl to prepare a microsome suspension.
Then, the above microsome suspension in an amount of 2 mg as protein was added to a tris-HCl buffer (pH 7.4) containing NADPH (final concentration 0.2 mM), ADP (final concentration 1 mM) and FeCl₃ (final concentration 10 µM). And, 10 µl of a dimethylformamide (DMF) solution of a test compound was added so that the total amount was 1 ml, and the resultant mixture was warmed at 37° C for 20 minutes. The test compound was added such that the final concentration became 10⁻⁴M or 10⁻⁵M.
Thereafter, the amount of formed peroxidation lipid was measured by a thiobarbituric acid method. The inhibition activity of the test compound is expressed in terms of an inhibition ratio (%) in comparison with a control group. […] In addition, in the control group, 10 µl of DMF was used in place of 10 µl of the DMF solution of the test compound.

[7] = test system: sunburn; test: Ultraviolet screening test (ointment on skin exposed to direct sunlight); type: in vivo, normally healthy persons; conditions: 10 mg ointment containing 1 wt.%, femoral region, 10 persons, direct sunlight 2 hours and 30 minutes; remark: listed apart in the source

## O=C(/C=C/c1ccccc1)c1ccc(O)cc1O [Example 14, 2',4'-dihydroxychalcone]
[1]; Fig. 2
  ultraviolet absorption spectrum (in words): has an absorption band in most of the wavelength regions of Dorno's ray and long-wavelength ultraviolet light
[1]; concentration of 10 μg/ml in an ethanol solution, 300 nm
  Absorbance 300 nm: 0.65~0.75
[1]; concentration of 10 μg/ml in an ethanol solution, 350 nm
  Absorbance 350 nm: 0.60~0.70
[1]; concentration of 10 μg/ml in an ethanol solution, at UVmax
  Absorbance UVmax: 0.70~0.80
[1]; ultraviolet light absorption maximum
  UVmax: 306 nm
[2]
  numbers of persons + (Clear sunburn was recognized): 0 persons
  numbers of persons - (Slight sunburn was recognized): 1 persons
[3]
  histological comparison of skin of applied portion and skin of normal portion: no difference between these two portions
[4]
  inhibition of swelling: significantly inhibited swelling
[5]
  inhibition at 30 µM: 56.9 ± 12.8%
[6]; 10^-5 concentration, 10 µM
  Inhibition ratio 10^-5 concentration: 90 % or more
[6]; final concentration 10^-4M, 100 µM
  Inhibition ratio 10^-4M concentration: 90 % or more
[7]
  numbers of persons + (Almost no change): 9 persons
